# Source: patent US20260070945A1, “MACROCYCLIC IMMUNOMODULATORS” (Bristol-Myers Squibb Company, priority 2022, published 2026)
# Like-named read-outs stand apart in the source and are kept apart here. *1 amine or outer side, *2 acyl side, *3 side chain or, on linkers, in order; H or OH if unused. Where a SMILES comes first, the peptide text is derived from it. Bridges are numbered along the chain shown (N, C = ends). [ ]: non-standard residue; d: D form. The star is where a group is joined. ξ: configuration not given here. Phe(3-CF3) = N[C@@H](Cc1cccc(C(F)(F)F)c1)C(=O)O; Ala(morpholin-4-yl) = N[C@@H](CN1CCOCC1)C(=O)O; Phe(4-COOH) = N[C@@H](Cc1ccc(C(=O)O)cc1)C(=O)O; Bip = N[C@@H](Cc1ccc(-c2ccccc2)cc1)C(=O)O; Phe(3-Me) = Cc1cccc(C[C@H](N)C(=O)O)c1; γGlu = O=C(O)[C@H](CCC(=O)[*:2])N[*:1]; NH(CH2)12COOH = O=C(O)CCCCCCCCCCCCN*; Val(3-OH) = CC(C)(O)[C@H](N)C(=O)O; Cha = N[C@@H](CC1CCCCC1)C(=O)O; Ile(3ξ) = CCC(C)[C@H](N)C(=O)O; Thr(3ξ) = CC(O)[C@H](N)C(=O)O; dDab = NCC[C@@H](N)C(=O)O; Carboxymethyl = O=C(O)C*; NMeA = CN[C@@H](C)C(=O)O; Aun = NCCCCCCCCCCC(=O)O; Dab = NCC[C@H](N)C(=O)O; AEEA = NCCOCCOCC(=O)O
# Target: T1, PD-1/PD-L1 interaction (PE-labeled human PD-L1-Ig binding to Jurkat cell line over-expressing human PD-1) (Homo sapiens, UniProt Q15116)
# T1 construct: expressed in transfected cells; host or cells: Jurkat
# T1 sequence (Q15116 25-288): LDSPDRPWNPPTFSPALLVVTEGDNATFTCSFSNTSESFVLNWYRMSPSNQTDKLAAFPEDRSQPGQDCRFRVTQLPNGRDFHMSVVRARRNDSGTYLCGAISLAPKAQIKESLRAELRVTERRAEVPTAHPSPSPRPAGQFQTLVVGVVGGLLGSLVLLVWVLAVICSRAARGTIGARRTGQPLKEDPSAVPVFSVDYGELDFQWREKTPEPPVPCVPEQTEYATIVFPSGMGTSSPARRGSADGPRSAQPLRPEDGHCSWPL
# Test: Jurkat-PD-1 Cell Binding High-Content Screening Assay (CBA)
# Outline: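 Cells 8×10^3/well, DMEM + 10% FCS; cpd 2 h, 37 °C; PE–PD-L1-Ig 20 nM final, 1 h; PFA fix + Hoechst 33342, 3× dPBS wash; high-content imager.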
# [1] = Jurkat-hPD-1 cells, PE-labeled PD-L1-Ig 20 nM final; read-out: Jurkat HPD1 PDL1 IC50
IC50 [1],"IC50 (PE-labeled PD-L1-Ig 20 nM final, Jurkat-hPD-1 cells; read-out: Jurkat HPD1 PDL1 IC50)",SMILES
23.4 nM,–,CC(=O)NCCCC[C@@H]1NC(=O)[C@H](C(C)(C)O)NC(=O)[C@H](CC2CCCCC2)NC(=O)[C@H](CCN)NC(=O)[C@@H](CC(C)C)NC(=O)[C@H](C)N(C)C(=O)[C@H](CCC(N)=O)NC(=O)[C@H](Cc2ccc(-c3ccccc3)cc2)NC(=O)[C@H](Cc2ccc(C(=O)O)cc2)NC(=O)[C@H](Cc2cccc(C(F)(F)F)c2)NC(=O)[C@H](CC(=O)O)NC(=O)[C@H](Cc2ccc(OCC(=O)O)cc2)NC(=O)[C@H](CN2CCOCC2)NC(=O)CSC[C@@H](C(=O)N[C@@H](CCN)C(=O)NCCOCCOCC(=O)N[C@@H](CCC(=O)NCCOCCOCC(=O)NCCCCCCCCCCCCC(=O)O)C(=O)O)NC1=O [Example 1174] ({CH2CO}-[Ala(morpholin-4-yl)]Y(Carboxymethyl)D[Phe(3-CF3)][Phe(4-COOH)][Bip]Q[NMeA][dL][Dab][Cha][Val(3-OH)]K(Ac)C[Dab][AEEA][γGlu][AEEA]-{NH(CH2)12COOH}; thioether N-14)
3 nM,–,CCC(C)[C@@H]1NC(=O)[C@H](Cc2ccc(-c3ccccc3)cc2)NC(=O)[C@H](CC(C)C)NC(=O)[C@H](Cc2c[nH]c3ccccc23)NC(=O)[C@H](CC(=O)O)NC(=O)[C@H](Cc2ccc(C(=O)O)cc2)NC(=O)[C@H](Cc2ccc(OCC(=O)O)cc2)NC(=O)CSC[C@@H](C(=O)N[C@@H](CCN)C(=O)NCCOCCOCC(=O)NCCCCCCCCCCC(=O)O)NC(=O)[C@H](CCC(=O)O)NC(=O)[C@H](C(C)(C)O)NC(=O)[C@H](CC2CCCCC2)NC(=O)[C@H](CCN)NC(=O)[C@@H](CC(C)C)NC(=O)[C@H](C)N(C)C1=O (stereo partly drawn) [Example 1414] ({CH2CO}-Y(Carboxymethyl)[Phe(4-COOH)]DWL[Bip][Ile(3ξ)][NMeA][dL][Dab][Cha][Val(3-OH)]EC[Dab][AEEA][Aun]-OH; thioether N-14)
42.7 nM,–,Cc1cccc(C[C@@H]2NC(=O)[C@H](CC(=O)O)NC(=O)[C@H](Cc3ccc(C(=O)O)cc3)NC(=O)[C@H]([C@@H](C)O)NC(=O)CSC[C@@H](C(=O)N[C@@H](CCN)C(=O)NCCOCCOCC(=O)NCCOCCOCC(=O)NCCCCCCCCCCCCC(=O)O)NC(=O)[C@H](CCC(=O)O)NC(=O)[C@H](C(C)(C)O)NC(=O)[C@H](CC3CCCCC3)NC(=O)[C@H](CCN)NC(=O)[C@@H](CC(C)C)NC(=O)[C@H](C)N(C)C(=O)[C@H](Cc3ccc(C(=O)O)cc3)NC(=O)[C@H](Cc3ccc(-c4ccccc4)cc3)NC(=O)[C@H](Cc3ccc(C(=O)O)cc3)NC2=O)c1 [Example 1430] ({CH2CO}-T[Phe(4-COOH)]D[Phe(3-Me)][Phe(4-COOH)][Bip][Phe(4-COOH)][NMeA][dL][Dab][Cha][Val(3-OH)]EC[Dab][AEEA][AEEA]-{NH(CH2)12COOH}; thioether N-14)

# More lines, now with the values behind:
SMILES,IC50 [1],"IC50 (PE-labeled PD-L1-Ig 20 nM final, Jurkat-hPD-1 cells; read-out: Jurkat HPD1 PDL1 IC50)"
CC(C)C[C@H]1NC(=O)[C@H](C)N(C)C(=O)[C@H](Cc2ccc(C(=O)O)cc2)NC(=O)[C@H](Cc2ccc(-c3ccccc3)cc2)NC(=O)[C@H](Cc2ccc(C(=O)O)cc2)NC(=O)[C@H](Cc2cccc(C(F)(F)F)c2)NC(=O)[C@H](CC(=O)O)NC(=O)[C@H](Cc2ccc(C(=O)O)cc2)NC(=O)[C@H](C(C)O)NC(=O)CSC[C@@H](C(=O)N[C@H](CCN)C(=O)NCCOCCOCC(=O)NCCCCCCCCCCCCC(=O)O)NC(=O)[C@H](CC(=O)O)NC(=O)[C@H](C(C)C)NC(=O)[C@H](CC2CCCCC2)NC(=O)[C@H](CCN)NC1=O (stereo partly drawn) [Example 2604] ({CH2CO}-[Thr(3ξ)][Phe(4-COOH)]D[Phe(3-CF3)][Phe(4-COOH)][Bip][Phe(4-COOH)][NMeA][dL][Dab][Cha]VDC[dDab][AEEA]-{NH(CH2)12COOH}; thioether N-14),–,428 nM
CCC(C)[C@@H]1NC(=O)[C@H](Cc2ccc(-c3ccccc3)cc2)NC(=O)[C@H](CC(C)C)NC(=O)[C@H](Cc2c[nH]c3ccccc23)NC(=O)[C@H](CC(=O)O)NC(=O)[C@H](Cc2ccc(O)cc2)NC(=O)[C@H](CC(N)=O)NC(=O)CSC[C@@H](C(=O)N[C@@H](C)C(=O)NCCOCCOCC(=O)NCCCCCCCCCCC(=O)O)NC(=O)[C@H](CO)NC(=O)[C@H](C(C)C)NC(=O)[C@H](CC2CCCCC2)NC(=O)[C@H](CCN)NC(=O)[C@@H](CC(C)C)NC(=O)[C@H](C)N(C)C1=O (stereo partly drawn) [Example 2072] ({CH2CO}-NYDWL[Bip][Ile(3ξ)][NMeA][dL][Dab][Cha]VSCA[AEEA][Aun]-OH; thioether N-14),25.4 nM,–
